Data: PubChem BioAssay (NCI)
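Test compounds were applied to cells in 96-well plates for 48 hours at 5 doses. GI50 = concentration required for 50% inhibition of growth. TGI denotes the concentration required for complete inhibition of growth.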

Assays:
Assay in all cases: NCI anticancer screen, dose series, 48 h
[1] = test system: SK-MEL-2 melanoma
[2] = test system: A498 renal
[3] = test system: COLO 205 colon
[4] = test system: HL-60(TB) leukemia
[5] = test system: SW-620 colon
[6] = test system: HT29 colon
[7] = test system: LOX IMVI melanoma
[8] = test system: 786-0 renal
[9] = test system: SF-268 CNS
[10] = test system: A549 NSCLC

Row | SMILES | GI50 [1] [µM] | TGI [1] [µM] | GI50 [2] [nM] | TGI [2] [µM] | GI50 [3] [µM] | TGI [3] [µM] | GI50 [4] [µM] | TGI [4] [µM] | GI50 [5] [µM] | TGI [5] [µM] | GI50 [6] [nM] | TGI [6] [µM] | GI50 [7] [µM] | TGI [7] [µM] | GI50 [8] [µM] | TGI [8] [µM] | GI50 [9] [µM] | TGI [9] [µM] | TGI [10] [µM] | GI50 [10] [µM]
1 | CC1CCN(CCOc2ccc(CNc3ccc4nc(CCC5CCCCC5)[nH]c4c3)cc2)CC1 | 1.83 | 3.41 | 1770 | 3.7 | 1.57 | 3.08 | 1.83 | 3.99 | 1.7 | 3.35 | 1150 | 2.81 | 1.67 | 3.1 | 1.43 | 2.79 | 1.68 | 3.44 |  | 
2 | O=[N+]([O-])/C=C/c1ccc(Cl)cc1Cl |  | 40.2 |  |  |  | 38.9 |  | 25.3 |  | 37.5 |  | 21.8 |  |  |  | 42.2 |  | 44.5 | 48.5 | 
3 | Cc1ccc(S(=O)(=O)NC(=O)OC23COCN2COC3)cc1 |  | > 100 |  | > 100 |  | > 100 |  |  |  | > 100 |  | > 100 |  | > 100 |  | > 100 |  | > 100 | > 100 | 
4 | Cc1ccc(Cl)cc1-n1c(C)nc2c(cnn2-c2ccnc3c(C(F)(F)F)cccc23)c1=O | > 100 | > 100 |  |  | > 100 | > 100 | > 100 | > 100 | > 100 | > 100 | > 100000 | > 100 | > 100 | > 100 | > 100 | > 100 | > 100 | > 100 | > 100 | > 100
5 | CC(N)CC(=O)O (stereo unspecified) |  | > 5000 |  | > 5000 |  | > 5000 |  | > 5000 |  | > 5000 |  | > 5000 |  |  |  | > 5000 |  | > 5000 | > 5000 | 
6 | Cc1ccc(-n2c(-c3cc4c([nH]c5ccccc54)c(-c4cccc(O)c4)n3)n[nH]c2=S)cc1 |  |  | 263 | 0.738 | 2.46 | 8.14 | 1.08 | 3.43 | 0.406 | 11.8 | 1360 | 3.68 | 0.461 | 1.97 | 2.6 | 12.8 | 1.32 | 10.6 | 10.4 | 2.34
7 | C=C1C(=O)O[C@H]2[C@H]1CC/C(COC(=O)NCc1c[nH]c3ccc(F)cc13)=C\CC[C@@]1(C)O[C@@H]21 | 1.5 | 3.39 | 3460 | 12.9 | 1.39 | 2.95 |  |  | 0.619 | 2.65 | 1070 | 2.58 | 0.952 | 2.28 | 0.899 | 2.43 | 1.81 | 3.9 | 10.9 | 3.17
8 | [Cl][Cu][Cl] | > 10 | > 10 |  |  | > 10 | > 10 | > 10 | > 10 | > 10 | > 10 | > 10000 | > 10 | > 10 | > 10 | > 10 | > 10 | > 10 | > 10 | > 10 | > 10
9 | C[P+]1(c2ccccc2)CCCCC1 |  | > 100 |  | > 100 |  | > 100 |  |  |  | > 100 |  | > 100 |  | > 100 |  | > 100 |  | > 100 | > 100 | 
10 | CC(=O)Nc1ccc(S(=O)(=O)NN(C)S(=O)(=O)c2ccc(C)cc2)cc1 |  | > 100 |  | > 100 |  | > 100 |  | > 100 |  | > 100 |  | > 100 |  |  |  | > 100 |  | > 100 | > 100 | 
11 | C=CC(=O)N[C@@H](/C=C/C(=O)OCC)Cc1ccc(-c2cc(Cl)cc(Cl)c2)cc1 | 16.3 | 38.3 |  |  | 14.8 | 53.9 | 8.22 | 60 | 17 | 83.2 | 12800 | 41.9 | 14.2 | 35.6 | 20.2 | 91 | 16 | > 100 | > 100 | 17.7
12 | N#CC1C(N)=NNC12Nc1ccccc1S2 (stereo unspecified) | 6.28 | 43.9 |  |  | 26.5 | 82.5 | 42.5 | > 100 | 31.2 | > 100 |  |  | 18.4 | 37.6 | 63.4 | > 100 | 62.9 | > 100 | 31.5 | 9.61
13 | CSC1=Nc2c(c(C)c(-c3ccccc3)n2COC(CO)CO)C2=NC(=O)CN12 | > 100 | > 100 | > 100000 | > 100 | > 100 | > 100 |  |  | > 100 | > 100 | > 100000 | > 100 | > 100 | > 100 | > 100 | > 100 | > 100 | > 100 | > 100 | > 100
14 | Cc1ccc(NC(=O)/C(C#N)=C/c2ccccc2)c(C)c1 |  | > 100 |  | > 100 |  | > 100 |  | > 100 |  | > 100 |  | > 100 |  |  |  | > 100 |  | > 100 | > 100 | 
15 | CC(=O)[CH-]C(C)=O.CC(=O)[CH-]C(C)=O.CC(=O)[CH-]C(C)=O.[Ga+3] | > 100 | > 100 |  |  | > 100 | > 100 |  |  | > 100 | > 100 |  |  | 32.7 | > 100 | > 100 | > 100 | > 100 | > 100 | > 100 | > 100
16 | Cc1nnc(N/N=C(/C(=O)C(C#N)c2ccc(Cl)cc2)C(C#N)c2ccc(Cl)cc2)n1N (stereo unspecified) |  | 34.5 |  |  |  | 32.5 |  | 55.4 |  | 37.3 |  | 61.9 |  | 35.4 |  | 31.5 |  | 57.2 | 43.9 | 
17 | CCOC(=O)C(CCCNC(=O)OC(C)(C)C)N(Cc1ccc(OC)cc1OC)C(=O)CC(=O)CP(=O)(OCC)OCC (stereo unspecified) |  | > 100 |  | > 100 |  | > 100 |  | > 100 |  |  |  | > 100 |  | > 100 |  | > 100 |  | > 100 | > 100 | 
18 | N#CNC1=NC(N)C(c2nc3ccccc3[nH]2)=C(CCCC(=O)Nc2cccc([N+](=O)[O-])c2)N1 (stereo unspecified) |  | > 100 |  |  |  | > 100 |  | > 100 |  | > 100 |  | > 100 |  | > 100 |  | > 100 |  | > 100 | > 100 | 
